Earlier results, collected in patent publication US20050042712A1, “Methods, compositions and instruments to predict antimicrobial or preservative activity” (ADVANCED MEDICAL OPTICS, INC., priority 2003, published 2005).
Read-outs that look alike come from different tables or passages of the source.

- pKa (carboxyphenyl group): 2.7
- pKa (phenolate anion): 3.6
- solubility in water (water): freely soluble in water
Compound: O=C1OC2(c3ccccc31)c1cc(Br)c(O)c(Br)c1Oc1c2cc(Br)c(O)c1Br.[Na].[Na] [Eosin Y, 2′,4′,5′,7′-Tetrabromo-3′,6′-dihydroxyspiro(isobenzofuran-1(3H),9′-(9H)xanthen)-3-one disodium salt]
